Where a name gives a salt, the structure may show the parent alone. Read-outs that look alike come from different tables or passages of the source.
Key:
5-HT2A Sites = target: T1, 5-HT2A Sites (Rattus norvegicus, UniProt P14842); assay: Drug affinity for 5-HT2A sites (3H-Ketanserin binding, cerebral cortex); conditions: Radioligand 3H-Ketanserin; tissue cerebral cortex
T1 construct: Radioligand: ^3 H-Ketanserin Tissue: Cerebral cortex; from tissue; host or cells: cerebral cortex

[1] = target: T2, [3H]-5-HT uptake by synaptosomes from rat frontal cortex (Rattus norvegicus, UniProt P31652); assay: Uptake of [3H]-5-HT by synaptosomes from rat frontal cortex; type: biochemical
T2 construct: synaptosomes from rat frontal cortex; from tissue; host or cells: rat frontal cortex synaptosomes

5-HT1A Sites = target: T3, 5-HT1A Sites (Rattus norvegicus, UniProt P19327); assay: biochemical; type: binding
T3 sequence (P19327 1-422): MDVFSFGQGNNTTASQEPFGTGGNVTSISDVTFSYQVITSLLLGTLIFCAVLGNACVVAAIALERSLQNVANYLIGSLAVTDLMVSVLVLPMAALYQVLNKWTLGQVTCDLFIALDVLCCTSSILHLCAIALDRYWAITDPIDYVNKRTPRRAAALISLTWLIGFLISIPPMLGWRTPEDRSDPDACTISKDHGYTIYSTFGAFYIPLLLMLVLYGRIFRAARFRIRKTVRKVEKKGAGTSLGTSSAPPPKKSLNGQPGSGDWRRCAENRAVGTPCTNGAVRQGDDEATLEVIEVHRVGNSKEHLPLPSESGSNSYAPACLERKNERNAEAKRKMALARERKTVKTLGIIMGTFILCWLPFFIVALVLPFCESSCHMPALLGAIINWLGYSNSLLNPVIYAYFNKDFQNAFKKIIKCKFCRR

rats = conditions: cited from earlier work
[2] = system: alcohol-dependent individuals; conditions: compared to placebo; cited from earlier work
monkeys = conditions: cited from earlier work
[3] = system: alcohol preferring (P) rats; assay: Effect on alcohol intake in alcohol preferring (P) rats; type: in vivo, rat
Method: To further illustrate the useful pharmacological properties of compounds of formula (I), the effect of Compound A administered systematically was determined in alcohol preferring (P) rats. Because of its pattern of drinking, the P animal seems to represent a valid genetically based model to approximate the human condition of alcoholism (McBride et al., Alcohol 7:199-205, 1990; Lankford et al., Pharmacol. Biochem. Behav. 8:293-299,1991). After maximally preferred alcohol concentrations had stabilised for four days, Compound A in a dose of 2.5 and 10 mg/kg was administered twice a day over four consecutive days. […] The highest dose of Compound A reduced intake of alcohol by >40%.

[4] = Radioligand 3H-8-OH-DPAT, tissue hippocampus

T2 sequence (P31652 whole entry): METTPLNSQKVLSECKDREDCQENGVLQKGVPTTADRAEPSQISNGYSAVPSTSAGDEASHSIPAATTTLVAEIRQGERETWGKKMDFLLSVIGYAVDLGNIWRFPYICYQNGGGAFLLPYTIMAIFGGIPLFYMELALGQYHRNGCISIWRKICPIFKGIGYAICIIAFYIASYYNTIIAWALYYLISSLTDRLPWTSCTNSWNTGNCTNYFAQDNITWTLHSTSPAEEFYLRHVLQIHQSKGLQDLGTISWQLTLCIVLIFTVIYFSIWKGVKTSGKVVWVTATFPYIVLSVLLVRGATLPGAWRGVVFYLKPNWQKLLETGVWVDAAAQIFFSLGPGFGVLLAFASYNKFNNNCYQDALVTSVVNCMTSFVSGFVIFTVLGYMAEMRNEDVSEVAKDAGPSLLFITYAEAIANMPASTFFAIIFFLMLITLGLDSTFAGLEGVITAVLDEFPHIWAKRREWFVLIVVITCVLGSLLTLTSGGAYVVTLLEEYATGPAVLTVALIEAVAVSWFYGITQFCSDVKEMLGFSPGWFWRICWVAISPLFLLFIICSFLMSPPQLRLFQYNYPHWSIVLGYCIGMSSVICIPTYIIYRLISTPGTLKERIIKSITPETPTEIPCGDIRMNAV
T1 sequence (P14842 whole entry): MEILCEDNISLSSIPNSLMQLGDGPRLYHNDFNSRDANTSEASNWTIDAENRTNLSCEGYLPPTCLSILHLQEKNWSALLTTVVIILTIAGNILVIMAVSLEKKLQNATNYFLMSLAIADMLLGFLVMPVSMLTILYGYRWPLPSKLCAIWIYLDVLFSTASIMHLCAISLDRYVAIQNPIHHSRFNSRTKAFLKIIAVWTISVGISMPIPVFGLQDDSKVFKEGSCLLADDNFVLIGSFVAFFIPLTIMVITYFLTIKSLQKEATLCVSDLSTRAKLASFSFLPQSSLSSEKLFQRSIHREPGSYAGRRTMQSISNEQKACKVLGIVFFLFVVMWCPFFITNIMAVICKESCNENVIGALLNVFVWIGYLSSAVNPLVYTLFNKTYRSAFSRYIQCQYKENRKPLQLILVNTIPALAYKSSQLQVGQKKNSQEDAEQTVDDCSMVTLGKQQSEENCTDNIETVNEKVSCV

Compound CCNC(=O)N1CCN(CCCC(c2ccc(F)cc2)c2ccc(F)cc2)CC1 [Amperozide, reference compound] has a Ki (5-HT2A Sites) of 16 nM, an IC50 [1] of 320 nM and a Ki (5-HT1A Sites) of 805 nM. The Intake of alcohol (rats) was “significantly attenuate”.

For O=C1CC2(CCCC2)CC(=O)N1CCCCN1CCN(c2ncccn2)CC1 [Buspirone], the Drop-out rate [2] is listed as “lower drop-out rate”, the Signs of craving [2] is listed as “fewer signs of craving” and the Consumption of alcohol (monkeys) is listed as “attenuate significantly”.

With Cc1cccc(N2CCN(CCCCc3ccc(F)cc3)CC2)n1.O=C(O)/C=C/C(=O)O [Compound A, 1-[4-(p-fluorophenyl)-butyl]-4-(6-methyl-2-pyridinyl)-piperazine fumarate] the Ki (5-HT2A Sites) was 10 nM, the “Food and water after injections” value ([3]; after Compound A injections) was “returned to pre-drug levels” and the “Intake of alcohol (absolute g/kg and proportion of alcohol to total fluid intake)” value ([3]; both doses, 2.5 and 10 mg/kg twice a day over four days, during administration) was “significantly reduced”. The “Ingestion of food and water” value ([3]; each dose, during the period of injection) was “increased the ingestion of food and water above pre-treatment levels”, the “Alcohol intakes after administration versus pre-treatment level” value ([3]; five days following administration, intakes rebounded) was “still being significantly lower than those of the pre-treatment level” and the “Reduction of intake of alcohol” value ([3]; highest dose (10 mg/kg) twice a day over four consecutive days) was > 40%. The IC50 [1] was 12000 nM and the Ki (5-HT1A Sites; [4]) was 0.9 nM.

CCOc1cccnc1N1CCN(CCCCc2ccc(F)cc2)CC1 [Compound B, 1-[4-(p-fluorophenyl)-butyl]-4-(3-ethoxy-2-pyridinyl)-piperazine fumarate] showed a Ki (5-HT2A Sites) of 1.6 nM and a Ki (5-HT1A Sites; [4]) of 1.7 nM.

With COC(=O)c1cccnc1N1CCN(CCCC(c2ccc(F)cc2)c2ccc(F)cc2)CC1 [FG5893, 2-[4-[4,4-bis(4-fluorophenyl)butyl]-1-piperazinyl]-3-pyridine-carboxylic acid methyl ester dihydrochloride ethylat, reference compound] the IC50 ([1]; synaptosomes from rat frontal cortex, concentration which inhibits the uptake by 50%, read-out: IC50, uptake of [3H]-5-HT) was 80 nM and the Ki (5-HT1A Sites; [4]) was 0.7 nM.

— US6221858A, “Pyridyl-and pyrimidyl-piperazines in the treatment of substance abuse disorders” (priority 1996, dated 2001)
